Read-outs that look alike come from different tables or passages of the source.
How the values were obtained:
Experiment in all cases: KinomeScan kinase panel, single concentration 10 µM
Format in all cases: binding
KinomeScan kinase panel [1] = molecular target: T1, KinomeScan kinase panel (Homo sapiens, UniProt Q9H0K1); details: read-out: score (%)
T1 construct: purchased DiscoveRx (KinomeScan)

KinomeScan kinase panel [2] = molecular target: T2, KinomeScan kinase panel (Homo sapiens, UniProt Q8N4C8); details: MINK, 10 µM; read-out: score (%)
T2 construct: purchased DiscoveRx (KinomeScan)

KinomeScan kinase panel [3] = molecular target: T3, KinomeScan kinase panel (Homo sapiens, UniProt O94804); details: LOK, 10 µM
T3 construct: purchased DiscoveRx (KinomeScan)

KinomeScan kinase panel [4] = molecular target: T4, KinomeScan kinase panel (Homo sapiens, UniProt P48736); details: PIK3CG, 10 µM; read-out: score (%)
T4 construct: purchased DiscoveRx (KinomeScan)

KinomeScan kinase panel [5] = molecular target: T5, KinomeScan kinase panel (Homo sapiens, UniProt P49841); details: GSK3B, 10 µM; read-out: score (%)
T5 construct: purchased DiscoveRx (KinomeScan)

KinomeScan kinase panel [6] = molecular target: T6, KinomeScan kinase panel (Homo sapiens, UniProt P16234); details: PDGFRA, 10 µM; read-out: score (%)
T6 construct: purchased DiscoveRx (KinomeScan)

KinomeScan kinase panel [7] = molecular target: T7, KinomeScan kinase panel (Homo sapiens, UniProt Q13873); details: BMPR2, 10 µM
T7 construct: purchased DiscoveRx (KinomeScan)
T7 sequence (Q13873 27-1038): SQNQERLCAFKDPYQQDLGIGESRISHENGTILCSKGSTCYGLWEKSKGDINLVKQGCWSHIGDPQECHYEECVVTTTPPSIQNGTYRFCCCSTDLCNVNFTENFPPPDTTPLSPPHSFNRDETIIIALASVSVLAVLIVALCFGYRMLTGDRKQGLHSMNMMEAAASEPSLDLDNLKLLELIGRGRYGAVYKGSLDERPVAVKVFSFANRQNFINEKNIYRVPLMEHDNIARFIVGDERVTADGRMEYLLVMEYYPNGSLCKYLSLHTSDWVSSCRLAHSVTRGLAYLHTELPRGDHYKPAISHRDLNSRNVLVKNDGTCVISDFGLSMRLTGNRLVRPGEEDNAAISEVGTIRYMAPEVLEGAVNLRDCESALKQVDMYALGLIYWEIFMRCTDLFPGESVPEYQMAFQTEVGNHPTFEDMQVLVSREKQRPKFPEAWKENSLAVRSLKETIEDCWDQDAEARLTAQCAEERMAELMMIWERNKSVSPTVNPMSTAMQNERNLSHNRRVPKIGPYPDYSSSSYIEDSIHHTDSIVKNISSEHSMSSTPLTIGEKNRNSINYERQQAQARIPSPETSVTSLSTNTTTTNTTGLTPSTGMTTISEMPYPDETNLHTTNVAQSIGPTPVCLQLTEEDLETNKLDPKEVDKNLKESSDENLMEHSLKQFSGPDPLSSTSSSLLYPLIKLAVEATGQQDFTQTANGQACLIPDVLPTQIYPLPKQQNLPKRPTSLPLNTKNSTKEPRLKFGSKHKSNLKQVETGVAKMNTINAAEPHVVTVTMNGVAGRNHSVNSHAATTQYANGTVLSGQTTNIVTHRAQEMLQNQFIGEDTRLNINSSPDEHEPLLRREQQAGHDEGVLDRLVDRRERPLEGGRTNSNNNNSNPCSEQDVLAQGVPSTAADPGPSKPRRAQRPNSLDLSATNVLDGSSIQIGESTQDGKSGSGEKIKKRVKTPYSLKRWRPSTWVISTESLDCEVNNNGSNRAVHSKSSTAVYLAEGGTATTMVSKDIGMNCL

KinomeScan kinase panel [8] = molecular target: T8, KinomeScan kinase panel (Homo sapiens, UniProt Q9HAZ1); details: CLK4, 10 µM; read-out: score (%)
T8 construct: purchased DiscoveRx (KinomeScan)

KinomeScan kinase panel [9] = molecular target: T9, KinomeScan kinase panel (Homo sapiens, UniProt Q6PHR2); details: kinase ULK3; 10 µM
T9 construct: purchased DiscoveRx (KinomeScan)
T9 sequence (Q6PHR2 1-472): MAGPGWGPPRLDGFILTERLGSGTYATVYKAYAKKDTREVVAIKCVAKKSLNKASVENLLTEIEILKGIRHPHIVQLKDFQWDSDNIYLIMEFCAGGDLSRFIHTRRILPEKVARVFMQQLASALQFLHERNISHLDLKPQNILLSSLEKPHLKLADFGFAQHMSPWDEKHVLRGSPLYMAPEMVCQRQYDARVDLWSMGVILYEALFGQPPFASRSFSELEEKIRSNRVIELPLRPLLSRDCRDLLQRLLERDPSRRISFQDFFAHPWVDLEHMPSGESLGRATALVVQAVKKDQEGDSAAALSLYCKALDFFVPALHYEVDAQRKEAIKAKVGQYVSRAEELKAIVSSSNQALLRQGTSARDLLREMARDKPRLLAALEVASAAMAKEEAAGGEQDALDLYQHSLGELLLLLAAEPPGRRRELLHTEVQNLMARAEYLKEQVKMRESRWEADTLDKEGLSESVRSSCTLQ

KinomeScan kinase panel [10] = molecular target: T10, KinomeScan kinase panel (Homo sapiens, UniProt Q16659); details: ERK3, 10 µM; read-out: score (%)
T10 construct: purchased DiscoveRx (KinomeScan)

KinomeScan kinase panel [11] = molecular target: T11, KinomeScan kinase panel (Homo sapiens, UniProt O14730); details: read-out: score (%)
T11 construct: purchased DiscoveRx (KinomeScan)
T11 sequence (O14730 1-519): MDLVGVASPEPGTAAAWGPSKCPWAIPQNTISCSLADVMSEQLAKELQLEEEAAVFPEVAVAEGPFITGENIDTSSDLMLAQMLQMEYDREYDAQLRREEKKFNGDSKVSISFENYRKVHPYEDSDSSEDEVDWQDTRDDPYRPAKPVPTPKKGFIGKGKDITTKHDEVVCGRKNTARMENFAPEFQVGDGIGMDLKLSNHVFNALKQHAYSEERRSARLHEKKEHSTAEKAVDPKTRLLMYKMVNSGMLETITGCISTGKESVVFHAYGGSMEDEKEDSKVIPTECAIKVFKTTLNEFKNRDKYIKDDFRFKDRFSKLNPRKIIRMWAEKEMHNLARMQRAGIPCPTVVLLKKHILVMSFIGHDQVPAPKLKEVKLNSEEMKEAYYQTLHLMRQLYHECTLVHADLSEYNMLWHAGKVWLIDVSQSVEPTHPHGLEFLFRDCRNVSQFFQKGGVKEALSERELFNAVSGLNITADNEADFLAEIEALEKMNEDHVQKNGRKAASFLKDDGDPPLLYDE

T8 sequence (Q9HAZ1 whole entry): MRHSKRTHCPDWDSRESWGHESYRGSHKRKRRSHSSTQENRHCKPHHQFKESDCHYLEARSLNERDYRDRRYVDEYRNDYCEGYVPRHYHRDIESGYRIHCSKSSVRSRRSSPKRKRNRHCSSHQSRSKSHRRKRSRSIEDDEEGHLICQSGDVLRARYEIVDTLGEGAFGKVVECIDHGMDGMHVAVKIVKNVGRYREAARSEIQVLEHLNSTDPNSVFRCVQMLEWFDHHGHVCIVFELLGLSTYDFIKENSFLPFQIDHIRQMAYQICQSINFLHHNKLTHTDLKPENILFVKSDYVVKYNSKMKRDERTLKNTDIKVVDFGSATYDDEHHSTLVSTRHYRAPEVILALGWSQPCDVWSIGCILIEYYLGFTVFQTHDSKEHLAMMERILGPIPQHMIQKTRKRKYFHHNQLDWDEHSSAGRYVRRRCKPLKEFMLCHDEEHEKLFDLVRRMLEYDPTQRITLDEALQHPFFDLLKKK
T6 sequence (P16234 24-1089): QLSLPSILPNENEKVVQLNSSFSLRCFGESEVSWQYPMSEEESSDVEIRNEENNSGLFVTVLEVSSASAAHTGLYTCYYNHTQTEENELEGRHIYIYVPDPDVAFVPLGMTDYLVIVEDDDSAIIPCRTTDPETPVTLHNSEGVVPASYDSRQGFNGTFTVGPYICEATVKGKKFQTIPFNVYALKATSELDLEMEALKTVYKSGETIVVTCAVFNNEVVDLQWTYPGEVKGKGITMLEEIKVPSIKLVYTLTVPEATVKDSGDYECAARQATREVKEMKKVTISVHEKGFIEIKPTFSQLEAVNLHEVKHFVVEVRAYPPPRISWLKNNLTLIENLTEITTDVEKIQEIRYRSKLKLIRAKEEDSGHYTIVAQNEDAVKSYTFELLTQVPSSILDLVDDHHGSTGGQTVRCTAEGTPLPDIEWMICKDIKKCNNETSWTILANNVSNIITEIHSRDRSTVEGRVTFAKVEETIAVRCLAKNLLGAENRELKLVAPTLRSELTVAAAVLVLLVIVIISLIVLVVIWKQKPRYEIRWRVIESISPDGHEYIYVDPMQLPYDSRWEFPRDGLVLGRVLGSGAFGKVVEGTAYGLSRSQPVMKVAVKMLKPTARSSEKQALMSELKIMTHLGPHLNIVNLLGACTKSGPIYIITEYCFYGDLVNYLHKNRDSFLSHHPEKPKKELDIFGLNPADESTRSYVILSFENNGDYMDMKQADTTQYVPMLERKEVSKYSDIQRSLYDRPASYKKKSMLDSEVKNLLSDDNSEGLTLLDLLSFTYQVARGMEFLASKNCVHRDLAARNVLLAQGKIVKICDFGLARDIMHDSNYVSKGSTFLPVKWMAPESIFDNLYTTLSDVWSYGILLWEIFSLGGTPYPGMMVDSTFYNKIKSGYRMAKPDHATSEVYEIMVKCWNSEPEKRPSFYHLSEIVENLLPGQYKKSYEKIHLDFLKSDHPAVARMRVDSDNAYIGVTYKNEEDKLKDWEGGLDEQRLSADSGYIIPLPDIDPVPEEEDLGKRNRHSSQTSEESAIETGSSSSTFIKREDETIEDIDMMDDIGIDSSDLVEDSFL
T5 sequence (P49841 whole entry): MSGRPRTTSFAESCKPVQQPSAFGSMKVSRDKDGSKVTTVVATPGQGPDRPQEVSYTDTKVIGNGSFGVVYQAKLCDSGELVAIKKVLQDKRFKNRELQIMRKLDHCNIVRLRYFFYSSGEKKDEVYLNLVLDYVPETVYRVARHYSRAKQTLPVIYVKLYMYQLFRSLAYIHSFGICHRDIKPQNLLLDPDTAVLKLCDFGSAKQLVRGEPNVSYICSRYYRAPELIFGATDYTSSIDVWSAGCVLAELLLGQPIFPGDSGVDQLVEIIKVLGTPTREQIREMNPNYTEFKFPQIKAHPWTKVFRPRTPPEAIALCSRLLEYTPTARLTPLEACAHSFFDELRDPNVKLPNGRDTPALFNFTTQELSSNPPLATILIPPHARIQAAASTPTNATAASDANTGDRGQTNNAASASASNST
T1 sequence (Q9H0K1 whole entry): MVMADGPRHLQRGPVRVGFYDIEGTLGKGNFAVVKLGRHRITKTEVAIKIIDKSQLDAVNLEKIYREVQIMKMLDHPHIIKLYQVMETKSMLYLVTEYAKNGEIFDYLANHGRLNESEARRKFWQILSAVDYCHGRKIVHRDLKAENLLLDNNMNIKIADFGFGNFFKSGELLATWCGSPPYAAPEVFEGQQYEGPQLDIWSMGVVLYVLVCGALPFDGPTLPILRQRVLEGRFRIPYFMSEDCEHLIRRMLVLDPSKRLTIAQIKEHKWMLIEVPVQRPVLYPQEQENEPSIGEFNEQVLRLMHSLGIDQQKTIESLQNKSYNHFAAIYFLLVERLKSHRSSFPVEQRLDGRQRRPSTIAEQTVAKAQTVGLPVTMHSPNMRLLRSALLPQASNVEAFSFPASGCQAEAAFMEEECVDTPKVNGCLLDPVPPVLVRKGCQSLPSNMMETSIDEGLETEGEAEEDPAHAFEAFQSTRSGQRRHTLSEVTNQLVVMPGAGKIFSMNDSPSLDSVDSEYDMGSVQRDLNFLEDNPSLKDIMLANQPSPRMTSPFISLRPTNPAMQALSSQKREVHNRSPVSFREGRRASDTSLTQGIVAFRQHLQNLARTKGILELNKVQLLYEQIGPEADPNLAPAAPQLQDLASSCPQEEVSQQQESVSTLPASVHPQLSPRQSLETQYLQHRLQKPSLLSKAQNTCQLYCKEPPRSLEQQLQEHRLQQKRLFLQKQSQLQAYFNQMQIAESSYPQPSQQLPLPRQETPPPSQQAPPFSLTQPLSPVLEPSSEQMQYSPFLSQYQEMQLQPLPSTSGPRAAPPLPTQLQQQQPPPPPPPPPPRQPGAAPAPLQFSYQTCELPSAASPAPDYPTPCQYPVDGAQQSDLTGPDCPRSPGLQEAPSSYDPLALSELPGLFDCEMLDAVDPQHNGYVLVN
T2 sequence (Q8N4C8 whole entry): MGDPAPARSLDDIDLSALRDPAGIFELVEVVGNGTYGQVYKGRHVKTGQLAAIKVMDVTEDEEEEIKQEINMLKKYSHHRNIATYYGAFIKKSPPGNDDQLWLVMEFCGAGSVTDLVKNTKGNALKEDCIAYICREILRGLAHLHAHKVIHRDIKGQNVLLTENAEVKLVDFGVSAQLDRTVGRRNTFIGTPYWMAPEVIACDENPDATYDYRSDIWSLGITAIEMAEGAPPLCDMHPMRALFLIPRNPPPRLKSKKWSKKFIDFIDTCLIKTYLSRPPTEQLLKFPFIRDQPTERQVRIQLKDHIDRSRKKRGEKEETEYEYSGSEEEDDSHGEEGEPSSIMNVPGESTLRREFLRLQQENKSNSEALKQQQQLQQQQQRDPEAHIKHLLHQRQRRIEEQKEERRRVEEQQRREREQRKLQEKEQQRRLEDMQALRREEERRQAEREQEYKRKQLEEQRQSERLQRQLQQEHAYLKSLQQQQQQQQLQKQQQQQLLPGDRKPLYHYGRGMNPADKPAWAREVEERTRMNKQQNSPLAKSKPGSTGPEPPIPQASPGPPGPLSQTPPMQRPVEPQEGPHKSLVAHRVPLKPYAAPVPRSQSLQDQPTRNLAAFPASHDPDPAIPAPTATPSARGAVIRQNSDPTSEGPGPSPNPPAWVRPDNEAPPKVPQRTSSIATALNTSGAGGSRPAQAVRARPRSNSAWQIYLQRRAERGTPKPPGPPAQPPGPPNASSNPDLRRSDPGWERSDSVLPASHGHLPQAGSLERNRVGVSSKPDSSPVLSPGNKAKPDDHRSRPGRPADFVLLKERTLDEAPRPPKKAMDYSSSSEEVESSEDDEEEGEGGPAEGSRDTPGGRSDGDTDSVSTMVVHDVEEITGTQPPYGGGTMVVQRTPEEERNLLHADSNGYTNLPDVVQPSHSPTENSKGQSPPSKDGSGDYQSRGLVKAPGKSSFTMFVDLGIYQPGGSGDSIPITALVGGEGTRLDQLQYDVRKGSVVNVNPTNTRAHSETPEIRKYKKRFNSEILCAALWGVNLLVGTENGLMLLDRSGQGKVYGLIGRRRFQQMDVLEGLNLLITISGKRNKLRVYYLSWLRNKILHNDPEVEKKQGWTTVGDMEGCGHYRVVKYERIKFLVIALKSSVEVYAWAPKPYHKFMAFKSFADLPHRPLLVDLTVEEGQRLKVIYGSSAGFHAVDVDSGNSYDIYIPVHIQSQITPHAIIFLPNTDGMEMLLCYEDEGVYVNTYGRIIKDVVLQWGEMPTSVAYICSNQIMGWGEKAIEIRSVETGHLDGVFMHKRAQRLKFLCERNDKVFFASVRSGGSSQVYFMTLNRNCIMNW
T10 sequence (Q16659 whole entry): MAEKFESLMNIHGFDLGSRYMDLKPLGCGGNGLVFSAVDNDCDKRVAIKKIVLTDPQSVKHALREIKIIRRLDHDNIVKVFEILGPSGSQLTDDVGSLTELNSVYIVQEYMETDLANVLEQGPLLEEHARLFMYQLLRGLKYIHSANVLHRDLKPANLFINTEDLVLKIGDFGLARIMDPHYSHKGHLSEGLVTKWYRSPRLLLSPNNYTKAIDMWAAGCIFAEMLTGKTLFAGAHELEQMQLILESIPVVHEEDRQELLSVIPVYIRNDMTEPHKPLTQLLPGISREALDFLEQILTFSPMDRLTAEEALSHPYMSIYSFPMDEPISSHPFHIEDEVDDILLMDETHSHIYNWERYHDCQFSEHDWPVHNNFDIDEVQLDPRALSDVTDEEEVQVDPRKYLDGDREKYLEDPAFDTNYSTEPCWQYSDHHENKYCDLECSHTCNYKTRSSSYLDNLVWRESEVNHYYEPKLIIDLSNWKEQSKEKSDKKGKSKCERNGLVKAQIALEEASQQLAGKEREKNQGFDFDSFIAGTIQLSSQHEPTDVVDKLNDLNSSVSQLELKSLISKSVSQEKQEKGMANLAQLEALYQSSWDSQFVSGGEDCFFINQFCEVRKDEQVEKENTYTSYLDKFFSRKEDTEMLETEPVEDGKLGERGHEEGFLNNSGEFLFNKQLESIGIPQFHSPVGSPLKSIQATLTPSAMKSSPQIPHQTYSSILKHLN

| remaining binding at 10 µM (KinomeScan kinase panel [1]; SNF1LK2, 10 µM) [%] | SMILES | remaining binding at 10 µM (KinomeScan kinase panel [1]; kinase SIK2, 10 µM) [%] | remaining binding at 10 µM (KinomeScan kinase panel [2]) [%] | score (%) (KinomeScan kinase panel [3]) | remaining binding at 10 µM (KinomeScan kinase panel [4]) [%] | remaining binding at 10 µM (KinomeScan kinase panel [5]) [%] | remaining binding at 10 µM (KinomeScan kinase panel [6]) [%] | score (%) (KinomeScan kinase panel [7]) | remaining binding at 10 µM (KinomeScan kinase panel [8]) [%] | score (%) (KinomeScan kinase panel [9]) | remaining binding at 10 µM (KinomeScan kinase panel [10]) [%] | remaining binding at 10 µM (KinomeScan kinase panel [11]; RIOK3, 10 µM) [%] | remaining binding at 10 µM (KinomeScan kinase panel [11]; kinase RIOK3, 10 µM) [%] |
| --- | --- | --- | --- | --- | --- | --- | --- | --- | --- | --- | --- | --- | --- |
|  | CCN1CCN(Cc2ccc(NC(=O)c3ccc(C)c(NC(=O)c4cncc(-c5cccs5)c4)c3)cc2C(F)(F)F)CC1 [ALW-II-41-27] | 13 | 0.65 | 0.05 | > 30 | > 30 | 0 | nb (Hits values higher than 30% were considered negative (no binding: nb)) | 5.3 | 0.95 | > 30 | > 30 |  |
| 6.4 | CCN1CCN(Cc2ccc(NC(=O)c3ccc(C)c(/C=C/c4cnc5[nH]ccc5c4Cl)c3)cc2C(F)(F)F)CC1 [HG-6-63-01, (E)-3-(2-(4-chloro-1H-pyrrolo[2,3-b]pyridin-5-yl)vinyl)-N-(4-((4-ethylpiperazin-1-yl)methyl)-3-(trifluoromethyl)phenyl)-4-methylbenzamide] |  | 4.2 | 0 | > 30 | > 30 | 0 | 8.2% | > 30 | 23 | > 30 | 0.35 |  |
|  | CCN1CCN(Cc2ccc(NC(=O)c3ccc(C)c(C#Cc4cccnc4)c3)cc2C(F)(F)F)CC1 [XMD15-44] | 21 | 2.5 | 0 | 100 | > 30 | 0 | nb (Hits values higher than 30% were considered negative (no binding: nb)) | 15 | 0.25 | > 30 |  | 70 |

— publication PMC4457528, “Identification of Novel Small Molecule Inhibitors of Oncogenic RET Kinase” (PLoS ONE, 2015)
